Measured values as given in US9032821B2, “Articles for screening insect pest-repellents and uses thereof” (National Taiwan University, priority 2012, dated 2015).
Where “and” joins values, the source holds several entries; their conditions need not be identical. Equal values may be shown once.

Experiments:
Format in all cases: in vivo
[1] = test system: fleas; assay: Flea repellent test, tapered-end filter paper article in concave surface (round-ended glass) tube
Text: (§1) Two types of filter paper articles were constructed. Specifically, article with two blunt ends (herein after “blunt-end article”) and article with one tapered end and one blunt end (herein after “tapered-end article”), were constructed in accordance with the procedures depicted in FIG. 2, except minor modifications for the blunt-end article, in which each of the two filter paper stripes were not cut diagonally from one end, and therefore both ends remained blunt after the two filter paper stripes were adhered. Repellents test were then conducted using the respective articles so as to develop an improved system and/or method for screening a candidate insect pest-repellent.

[2] = test system: fleas; assay: Flea repellent test, blunt-end filter paper article in flat surface tube (inverted centrifuge tube); details: 20 fleas, counted after 30 min, tests #1-3
Text: as §1

[3] = test system: fleas; assay: Screening of essential oils as flea-repellents, tapered-end article in round-ended tube, repellency (PR %); details: concentration of about 1% (wt %)
Text: In another aspect, a method of screening a candidate insect pest-repellant using the article 100 of FIG. 1 is provided. Referring again to FIG. 2, during the operation of screening an effective insect pest-repellent, a few drops of a candidate insect pest-repellent solution and a control solution (e.g., a buffer or water) are respectively applied onto the two paper strips (i.e., the first and second paper strips (110, 120) respectively having the first and second tapered ends (111, 121)), and allowed them to spread evenly throughout the respective papers. The two paper strips (110, 120) are then let standing for a few minutes to dry. […] In one example, the entire set up (i.e., including the article 100, the tube 140 and the fleas) is let stand for at least 30 min, before the number of insect pests on respective paper strips (110, 120) are counted. Repellency (PR %) of the candidate insect pest-repellent is determined by the following equation, […]
The article was let stand for about 30 min until it was dried. […] After 30 min, the numbers of fleas on respective sides of the filtered paper article was then counted. Repellency (PR %) of each candidate essential oils was calculated in accordance with the following equation, […]

[4] = tapered end article + concave surface tube, 20 fleas, counted after 30 min, tests #1-3

SMILES	repellent activity towards fleas ([1]; in words, from Table 1, compared with the two commercial flea repellents)	number of fleas on Control (untreated) side of the article [1, 4]	number of fleas on Treated side of the article [1, 4]	number of fleas in the Bottom of the tube [2]	number of fleas on Control (untreated) side of the article [2]	number of fleas on Treated side of the article [2]	repellency [3]
CCO [75% Ethanol, ethanol]	no repellent activity	9 and 11	9 and 11 and 8	4 and 2 and 3	10 and 8 and 6	6 and 10 and 11	–
O=CC=Cc1ccccc1 [cinnamaldehyde]	–	–	–	–	–	–	at least 97%
